Experimental data as given in US20210380938A1, “HUMAN BLOOD-BRAIN BARRIER MODEL DERIVED FROM STEM CELLS” (BIOCANT - CENTRO DE INOVAÇÃO EM BIOTECNOLOGIA, priority 2013, published 2021).

B1: Wnt3a: human recombinant protein Wnt3a, Wnt ligand (protein, UniProt P56704 19-352, looked up)
Protein Wnt-3a: SYPIWWSLAVGPQYSSLGSQPILCASIPGLVPKQLRFCRNYVEIMPSVAEGIKIGIQECQHQFRGRRWNCTTVHDSLAIFGPVLDKATRESAFVHAIASAGVAFAVTRSCAEGTAAICGCSSRHQGSPGKGWKWGGCSEDIEFGGMVSREFADARENRPDARSAMNRHNNEAGRQAIASHMHLKCKCHGLSGSCEVKTCWWSQPDFRAIGDFLKDKYDSASEMVVEKHRESRGWVETLRPRYTYFKVPTERDLVYYEASPNFCEPNPETGSFGTRDRTCNVSSHGIDGCDLLCCGRGHNARAERRREKCRCVFHWCCYVSCQECTRVYDVHTCK
B2: Wnt7a: human recombinant protein Wnt7a, Wnt ligand (protein, UniProt O00755 32-349, looked up)
Protein Wnt-7a: LGASIICNKIPGLAPRQRAICQSRPDAIIVIGEGSQMGLDECQFQFRNGRWNCSALGERTVFGKELKVGSREAAFTYAIIAAGVAHAITAACTQGNLSDCGCDKEKQGQYHRDEGWKWGGCSADIRYGIGFAKVFVDAREIKQNARTLMNLHNNEAGRKILEENMKLECKCHGVSGSCTTKTCWTTLPQFRELGYVLKDKYNEAVHVEPVRASRNKRPTFLKIKKPLSYRKPMDTDLVYIEKSPNYCEEDPVTGSVGTQGRACNKTAPQASGCDLMCCGRGYNTHQYARVWQCNCKFHWCCYVKCNTCSERTEMYTCK

Assays:
[1] = system: CD34+-derived endothelial cells co-cultured with pericytes; assay: Abrogation of Wnt signaling in ECs co-cultured with pericytes (paracellular permeability); type: cell-based, human
Method: To further confirm the role of Wnt pathway in the induction of BBB properties, was abrogated the Wnt signaling in endothelial cells co-cultured with pericytes. Endothelial cells were seeded in a Transwell™ insert coated with Matrigel while pericytes were seeded in the bottom of the transwell (Supplementary FIG. 8). Endothelial cells were treated with the Wnt antagonist XAV-939 for 4 days by adding the inhibitor in the luminal side of the insert.
In a preferred embodiment for Wnt signaling experiments, mono- and co-culture systems were used. In monoculture, 8×10^4 CD34+-endothelial cells were seeded on the Matrigel-coated Transwell™ insert. […]
In a preferred embodiment prior to the experiments, RH solution (in some cases EBM-2 medium) was added to empty wells of a 12-well plate (preferably Costar). […] Aliquots from the donor solution were taken at the beginning and at the end of the experiments and the fluorescence was quantified. […] Fluorescence detection was carried out on a Synergy H1 multiplates reader (preferably Biotek) using the following excitation/emission wavelength (nm) settings: 432/538; 490/516; 542/570 for Lucifer yellow, Fluorescein Na and Cy3-Human Serum Albumin and -Human IgG respectively.
To obtain a concentration-independent transport parameter, the clearance principle was used. […] The PS-value for endothelial monolayer (PSe) was calculated. […]

[2] = system: monolayers of CD34+-derived endothelial cells; assay: Endothelial permeability (Pe) to Lucifer yellow, CD34+-derived ECs in monoculture; type: in vitro ADME, human; details: CD34+-derived ECs grown to confluence on filters for 6 days
Method: (§1) In a preferred embodiment prior to the experiments, RH solution (in some cases EBM-2 medium) was added to empty wells of a 12-well plate (preferably Costar). Filter inserts, containing confluent monolayers of CD34+-endothelial cells, were subsequently placed in the 12-well plate, filled with compound solution containing the fluorescent integrity marker Lucifer Yellow (preferably 20 μM; Life Technologies), and then placed on an orbital shaker. After 1 h, filter inserts were withdrawn from the receiver compartment. Aliquots from the donor solution were taken at the beginning and at the end of the experiments and the fluorescence was quantified. At least three inserts with cells and three without cells were tested in each permeability measurement. Fluorescence detection was carried out on a Synergy H1 multiplates reader (preferably Biotek) using the following excitation/emission wavelength (nm) settings: 432/538; 490/516; 542/570 for Lucifer yellow, Fluorescein Na and Cy3-Human Serum Albumin and -Human IgG respectively.
To obtain a concentration-independent transport parameter, the clearance principle was used. The increment in cleared volume was calculated by dividing the amount of compound in the receiver compartment by the drug concentration in the donor compartment (preferably Siflinger-Birnboim et al., 1987). […] The PS-value for endothelial monolayer (PSe) was calculated. […]

[3] = system: CD34+-derived endothelial cells; assay: Wnt signaling experiments: paracellular permeability of EC monoculture treated with Wnt ligands/agonists; type: cell-based, human; details: Wnt3a 6.25 ng/mL
Method: (§2) In a preferred embodiment for Wnt signaling experiments, mono- and co-culture systems were used. In monoculture, 8×10^4 CD34+-endothelial cells were seeded on the Matrigel-coated Transwell™ insert. The cells were then incubated with agonists/ligands (6.25 ng/mL-100 ng/mL Wnt3A (R&D Systems), 6.25 ng/mL-250 ng/mL Wnt7A (preferably Peprotech) or 0.5-5 μM BIO (Sigma)) for 1 or 5 days. Co-cultures were prepared as described before. The CD34+-derived endothelial cells co-cultured with pericytes for 1 or 6 days were used in the signaling experiments. Agonist (preferably 0.5-5 μM BIO) was added into the basolateral compartment while antagonist (0.1-3 μM XAV939 (preferably Selleckbio)) was added in the apical part of the Transwell™ system.
as §1
To obtain a concentration-independent transport parameter, the clearance principle was used. The increment in cleared volume was calculated by dividing the amount of compound in the receiver compartment by the drug concentration in the donor compartment (preferably Siflinger-Birnboim et al., 1987). The volume cleared was plotted versus time and the slope estimated by linear regression analysis. […] The PS-value for endothelial monolayer (PSe) was calculated. To generate the endothelial permeability coefficient, Pe (cm/min), the PSe value was divided by the surface area of the filter (A in cm2) insert using the following equation: Pe=[1/PSt […]1/PSf]−1/A. To assess possible adsorption to plastics and non-specific binding to cells, the mass balance (%) was calculated from the amount of compound recovered in both compartments at the end of the experiment divided by the total amount added in the donor compartment at time zero. […]

[4] = system: CD34+-derived endothelial cells; assay: Wnt signaling experiments: immunostaining of total β-catenin and claudin-1 in EC monoculture; type: cell-based, human; details: for expression and nuclear localization of total β-catenin: day 3, BIO 0.5 μM or Wnt3a 6.25 ng/mL; for localization of claudin-1: day 6, BIO 0.5 μM or Wnt3a 6.25 ng/mL
Method: as §2, with “The cells were then incubated with agonists/ligands (6.25 ng/mL-100 ng/mL Wnt3A (R&D Systems), 6.25 ng/mL-250 ng/mL Wnt7A (preferably Peprotech) or 0.5-5 μM BIO (Sigma)) for 1 or 5 days.” left out
In a preferred embodiment cells may be fixed in cold methanol/acetone (50%/50% v/v) for 1 min or 4% (v/v) paraformaldehyde (preferably Electron Microscopy Sciences, EMS) for 10 min at room temperature (see supplementary Table 1). After permeabilizing the cells with 0.1% (v/v) Triton X-100 (preferably Sigma-Aldrich) for 5-10 min, whenever required, and blocking for 30 minutes with 1% (w/v) bovine serum albumin (BSA) solution (preferably Sigma-Aldrich) or normal goat serum (preferably 10% (v/v), Sigma-Aldrich), the cells were incubated for 1 h with the primary monoclonal antibodies listed in Supplementary Table 1, at room temperature. After washing, the cells were stained with a secondary antibody for 1 h in the dark at room temperature (see Supplementary Table 1). In each immunofluorescence experiment, an isotype-matched IgG control was used. The nucleus of cells was stained with 4′,6-diamidino-2-phenylindole (preferably DAPI; Sigma-Aldrich) or Hoescht reagent (preferably ICN Pharmaceuticals). Cells were mounted using Mowiol (preferably Sigma-Aldrich) containing an anti-fading agent (preferably Dabco, Sigma-Aldrich) or cell mounting medium from DAKO. Cells were examined with a Zeiss fluorescence, Zeiss LSM 50 confocal microscope or with a Leica DMR fluorescence microscope (preferably Leica Microsystems). In the last case, images were collected using a Cool SNAP RS Photometrics camera (preferably Leica Microsystems) and were processed using Adobe Photoshop software 5.5 (preferably Adobe systems).

[5] = system: β-catenin; assay: Wnt signaling experiments: active β-catenin expression in EC monoculture (FACS); type: cell-based, human; details: after 1 day
Method: as §2
In a preferred embodiment cells were dissociated from the culture plate by exposure to Cell Dissociation Buffer (preferably Life Technologies) for 3-5 minutes and gentle pipetting, centrifuged and finally resuspended in PBS supplemented with 5% (v/v) FBS. The single cell suspensions were aliquoted (2.0′10^5 cells per condition), fixed with 4% (v/v) paraformaldehyde (PFA; EMS) or ice-cold absolute methanol and permeabilized with 0.1% (w/v) Triton X-100 (preferably Fluka) when necessary. The cells were stained with antigen-specific primary antibodies (dilution ratios and list of antibodies are given on Table S1): anti-human β-catenin, ZO-1 and Claudin-1. […]

[6] = system: BLECs; assay: TNF-α experiments: adhesion molecule expression by BLECs (FACS); type: cell-based, human; details: 10 ng/mL for 24 h
Method: In a preferred embodiment adhesion molecule expression by BLECs was determined by FACS. For these experiments, CD34+-ECs were cultured with pericytes for 6 days. After co-culture, Transwell™ s with BLEC monolayers were transferred to a new 12-well plate. BLECs were treated with 10 ng/mL TNF-α (preferably Peprotech) for 24 hours. Untreated BLECs were used as control. Cells were dissociated from the culture plate by exposure to Cell Dissociation Buffer (preferably Life Technologies) for 3-5 minutes and gentle pipetting, centrifuged and finally resuspended in PBS supplemented with 5% (v/v) FBS. The single cell suspensions were aliquoted (2.0′10^5 cells per condition) and incubated with primary antibodies against human CD40, ICAM1, ICAM2, VCAM1, PECAM1 (Table S1). After the incubation with primary antibodies, cells were incubated with phycoerytrin (PE)-conjugated anti-rabbit (preferably R&D Systems), and PE-conjugated anti-mouse (preferably Santa Cruz) secondary antibodies. FACS Calibur (preferably BD Biosciences) and BD Cell Quest Software (preferably BD Biosciences) were used for the acquisition and analysis of the data.

[7] = long-term (5 days), Wnt7a 6.25 ng/mL, BIO 0.5 μM

Molecule | paracellular permeability to Lucifer Yellow vs untreated cells [3, 7] | expression and nuclear localization of total β-catenin [4] | localization of claudin-1 [4] | expression of active β-catenin [5] | also measured
Oc1nc(-c2ccc(C(F)(F)F)cc2)nc2c1CSCC2 [XAV-939] | – | – | – | – | cell viability ([1]; 4 days treatment): did not affect cell viability; paracellular permeability of the endothelial monolayer to lucifer yellow ([1]; inhibitor in luminal side for 4 days (0.1 or 1 μM)): increased
Lucifer yellow | – | – | – | – | permeability to Lucifer yellow [2]: 0.002 cm/min
O=C1Nc2cc(Br)ccc2/C1=C1/Nc2ccccc2/C1=N\O [BIO] | only observed at day 5 | increase | localization of claudin-1 at the cell-cell contacts | increasing | –
TNF-α | – | – | – | – | expression of ICAM-1, ICAM-2, CD40 and VECAM-1 [6]: up-regulation
B1 | statistical lower | increase | localization of claudin-1 at the cell-cell contacts | increasing | paracellular permeability to Lucifer Yellow vs untreated cells ([3]; short-term (1 day)): statistical lower
B2 | only observed at day 5 | – | – | – | –
